This note sets out measurements from patent US10017681B2, “Corrosion inhibitors” (RHODIA OPERATIONS, priority 2014, dated 2018).

Data set [1] in a line: RCE film persistence under high shear (4000 rpm), Example 2. As to conditions: high shear rates (4000 rpm). The method, then:
(§1) Corrosion inhibition properties were screened using the LPR (Linear Polarisation Resistance) bubble test method and the film persistence of the surfactants was evaluated using a Rotating Cylinder Electrode (RCE). The conditions were the same in both tests.
(§2) A 90/10 brine (5% w/w NaCl) and Isopar M (C9-15 iso-paraffins) mixture at 60° C. was saturated with CO2. The electrodes were immersed in the brine and left for several hours to establish the base line corrosion rate before injecting the surfactant.
A shear rate of 4000 rpm was used to simulate very high shear conditions in order to determine the film persistence properties of the surfactants.
The persistence of the surfactant corrosion inhibitor film was also assessed under high shear rates (4000 rpm).

Data set [2] is described as follows: LPR (Linear Polarisation Resistance) bubble test, Example 2. The settings on record: 90/10 5% NaCl/Isopar M, 60° C., CO2. The method, then:
as §1, §2
The corrosion rate at 15 hours was used to benchmark the efficacy of the formulations containing octyl phosphonic acid against a commercial corrosion inhibitor. Synergistic properties of the surfactant mixtures were identified by comparing them against the corrosion rates of the individual surfactants.
The surfactant ratios for the LPR/RCE measurements were 80/20 and 50/50 Cl/octyl phosphonic acid and compared against the individual surfactants.

Data set [3] can be described thus: Foam tendency (dynamic foam test, ASTM G170-06). The format is physicochemical. As to conditions: 1000 ppm active; 50/50 v/v Isopar M and 5% NaCl, 25° C. Here is the method: Foam tendencies were investigated using the methods described in ASTM G170-06 (2012) ‘Standard Guide for Evaluating and Qualifying Oilfield and Refinery Corrosion Inhibitors in the Laboratory’.
A graduated dynamic foam test apparatus (1000 ml measuring cylinder) fitted with a No. 1 porosity gas sparge tube was used for the test. 1000 ppm of corrosion inhibitor was added to a 50/50 v/v brine (5% NaCl solution) and Isopar M mixture (200 ml) at ambient temperature (25° C.). The mixture was left for 10 minutes before immersing the sparge tube in the brine layer. Nitrogen gas (flow rate: 0.5 litre/min) was injected into the solution and the volume of foam produced was measured over a set period of time (10 minutes).
If the foam reached the 1000 ml mark (800 ml foam volume) before the 10 minutes had elapsed then the time taken for the foam to reach the 1000 ml mark (800 ml of foam) was recorded. The volume of foam produced after the allotted time was also recorded.
The foam persistence was determined by measuring the foam volume after 10 minutes.

The nature of data set [4]: Emulsion tendency (ASTM G-170). The format is physicochemical. The settings on record: for Brine (ml) @ T = 30 mins / Isopar M (ml) @ T = 30 mins / Pad (ml) @ T = 30 mins / Emulsion Layer (%): 1000 ppm active, 50/50 v/v Isopar M and 5% NaCl, 25° C.; for Emulsion Layer (%): after 30 minutes. Here is the method:
The emulsification behaviours of the alkyl phosphonic acids were investigated using the standard test procedure, ASTM G-170. It will be appreciated that, in general, corrosion inhibition formulations which have a low tendency to form emulsions with hydrocarbons are preferred.
1000 ppm active corrosion inhibitor formulation was added to a 250 ml measuring cylinder containing 100 ml 50/50 v/v 5% NaCl and Isopar M respectively. The cylinder was sealed and shaken 100 times.
The mixture was allowed to rest and the emulsion and brine layer volumes were recorded. The brine, Isopar M and emulsion layers were measured at 5, 10 and 30 minutes respectively.

The nature of data set [5]: Dynamic surface tension (maximum bubble pressure method). The format is physicochemical. As to conditions: 1000 ppm (as active) in 5% NaCl, 25° C., surface age 30 seconds. Here is the method:
Dynamic Surface Tension measurements were therefore carried out using a Messtechnik SITA T60 tensiometer for mixtures of the alkyl phosphonic acids with selected surfactants (anionic and amphoteric) in 5% NaCl.
These tests were carried out using the maximum bubble pressure method (see ‘Exploiting Surfactant Synergies in the Development of Foamers for Gas Well Deliqufication’, K Hatchman, C Jones, B Downward, G Collins, A Fellows, Proceedings of Chemistry In The Oil Industry XII, Royal Society of Chemistry, 2011).
The surface tensions were measured for 1000 ppm (as active) at a surface age of 30 seconds (equilibrium conditions) and ambient temperature (25° C.).

For data set [6] the following is noted: 20 ppm active; 1500 rpm; 60° C., CO2. Here is the method: An RCE film persistency test was carried out as follows: • A clean jacketed RCE corrosion cell was fitted with an auxiliary electrode, reference electrode, and gas sparge tube. • The cell was charged with 899.1 g of 5% NaCl brine. • The temperature of the circulator connected to the jacketed cell was set to 60° C. • A constant CO2 sparge of approx. 200 cm^3/min was passed through the brine in the RCE cell which was then left for 1 hour to reach equilibrium. • A C1018 mild steel coupon was washed in xylene and acetone to remove any vapour phase corrosion inhibitor and allowed to dry. • After the RCE cell reached equilibrium the mild steel coupon was connected to the RCE shaft and inserted into the RCE cell. • Isopar M 99.9 g was then carefully transferred into the cell so that it floated on top of the brine. (This is done at this stage to prevent the working electrode from becoming oil wet as a periscope is unavailable) • The rotator was turned on and set to 1500 rpm. • Baseline corrosion data was collected for approximately 2.5 hours. • During this time 2% (w/w active) stock solutions of samples 2 or 3 were made up in methanol.

Data set [7] can be described thus: Rotating Cylinder Electrode (RCE) film persistency test (4000 rpm). As to conditions: 20 ppm active, 60° C. The method, then:
An RCE film persistency test was carried out as follows: • A clean jacketed RCE corrosion cell was fitted with an, auxiliary electrode, reference electrode, and gas sparge tube. • The cell was charged with 899.1 g of 5% NaCl brine. • The temperature of the circulator connected to the jacketed cell was set to 60° C. • A constant CO2 sparge of approx. 200 cm^3/min was passed through the brine in the RCE cell which was then left for 1 hour to reach equilibrium. • A C1018 mild steel coupon was washed in xylene and acetone to remove any vapour phase corrosion inhibitor and allowed to dry. • After the RCE cell reached equilibrium the mild steel coupon was connected to the RCE shaft and inserted into the RCE cell. • Isopar M 99.9 g was then carefully transferred into the cell so that it floated on top of the brine. (This is done at this stage to prevent the working electrode from becoming oil wet as a periscope is unavailable) • The rotator was turned on and set to 4000 rpm. (NB. This is the fastest speed achievable using current available equipment.) • Baseline corrosion data was collected for approximately 2.5 hours. • During this time a 2% (w/w active) stock solution of Rhodafac ASI 80 was made up in methanol. • After the baseline corrosion data was collected the stock solution was injected into the RCE cell at a concentration of 20 ppm (w/w active). • The corrosion rate in the cell was recorded for at least a further 12.5 hours.

Data set [8] can be described thus: Solubility of samples when making stock solutions. The data set is classed as physicochemical. The settings on record: 2% (w/w active) stock solutions in methanol.
Data set [9] in a line: Bubble test (LPR), Example 1. The settings on record: on its own. Here is the method:
A bubble test was carried out as follows: • Clean corrosion cells were fitted with a stirring bar, auxiliary electrode, reference electrode, gas sparge tube, and glass periscope. • Each cell was charged with 999 g of the desired corrosion fluid. In this instance a 5% NaCl brine and Isopar M oil phase was used in a 9:1 ratio. • The cells were placed in a water bath set at 60° C. and set to stir at approximately 300 rpm. • Each cell was connected to a constant sparge of CO2 approx. 60 cm^3/min and then left for 1 hour to reach equilibrium. • C1018 mild steel coupons were washed with xylene and acetone to remove any vapour phase corrosion inhibitor and allowed to dry. • After the cells reached equilibrium the mild steel coupons were connected to the working electrodes and inserted into each cell using the glass periscopes to avoid getting the electrodes oil wet. • The LPR run was started and baseline corrosion data was collected for approximately 2.5 hours. • During this time 2% (w/w product) stock solutions of samples 1&2 were made up in deionised water.
The skilled reader will appreciate that the bubble test can only be used to evaluate if a product acts as a corrosion inhibitor and to rank corrosion inhibitors in order of effectiveness. […]

Where two headings read alike, the source gives them in different places. Marks after values point to notes of the source that are not given here.

For `CCCCCCCCCCCCP(=O)(O)O` [Lauryl Phosphonic Acid (100%), Lauryl Phosphonic Acid], in data set [1] (4 ppm), the “Average corrosion rate [bubble test] (mils/y)” value is reported as 174.2 mils/y, the “Average corrosion rate [weight loss] (mils/y)” value is on record as 146.8 mils/y and the “Effciency at T = 15 (%)” value was 27.6%. Further, in data set [1] (20 ppm), the “Average corrosion rate [bubble test] (mils/y)” value turned out to be 33.4 mils/y, the “Average corrosion rate [weight loss] (mils/y)” value worked out at 58.5 mils/y and the “Effciency at T = 15 (%)” value is given as 98.5%. Also, in data set [2] (4 ppm), the “Average corrosion rate [bubble test] (mils/y)” value is 174.2 mils/y, the “Average corrosion rate [weight loss] (mils/y)” value turned out to be 146.8 mils/y and the “Effciency at T = 15 (%)” value is 27.6%. In addition, in [2] (20 ppm), the “Average corrosion rate [bubble test] (mils/y)” value was determined as 33.4 mils/y, the “Average corrosion rate [weight loss] (mils/y)” value was found to be 58.5 mils/y and the “Effciency at T = 15 (%)” value is listed as 98.5%. In data set [3], the “Foam Volume after 10 minutes” value turned out to be 0 mL and the “Time to 1000 ml (secs)” value is “No foam”. In [4], the “Brine (ml) @ T = 30 mins” value came to 41 mL, the “Isopar M (ml) @ T = 30 mins” value is 12** ml, the “Pad (ml) @ T = 30 mins” value worked out at 0 mL and the “Emulsion Layer (%)” value was determined as 0%. For the same molecule, the “observation on the hydrocarbon layer” value in data set [4] (emulsification test, footnote) is given as “**Lauryl phosphonic acid appears to gel the hydrocarbon, effectively reducing the phase separation rate of the different layers”.

On to `CCCCCCCCCCCCP(=O)(O)O` [Lauryl Phosphonic Acid], for which the “Surface tension at 30 second (mN/m)” value in data set [5] is 38.8* mN/m.

Turning to `CCCCCCCCP(=O)(O)O` [Octyl Phosphonic Acid (80%), Octyl Phosphonic Acid], in data set [1] (4 ppm), the “Average corrosion rate [bubble test] (mils/y)” value was 267.4 mils/y, the “Average corrosion rate [weight loss] (mils/y)” value came to 244.3 mils/y and the “Effciency at T = 15 (%)” value was determined as 0%. In data set [1] (20 ppm), the “Average corrosion rate [bubble test] (mils/y)” value is 49.1 mils/y, the “Average corrosion rate [weight loss] (mils/y)” value stood at 48.1 mils/y and the “Effciency at T = 15 (%)” value stood at 96.3%. In data set [6], the “Average corrosion rate (RCE test)” value turned out to be 61 mils/y, the “Average corrosion rate (Weight Loss)” value came to 56 mils/y and the “Efficiency at T = 15” value was found to be 96%. In data set [2] (4 ppm), the “Average corrosion rate [bubble test] (mils/y)” value was 267.4 mils/y, the “Average corrosion rate [weight loss] (mils/y)” value was 244.3 mils/y and the “Effciency at T = 15 (%)” value is on record as 0%. In data set [2] (20 ppm), the “Average corrosion rate [bubble test] (mils/y)” value came to 49.1 mils/y, the “Average corrosion rate [weight loss] (mils/y)” value came to 48.1 mils/y and the “Effciency at T = 15 (%)” value is on record as “greater than 95%”. The “Effciency at T = 15 (%)” value in [2] (20 ppm, listed as OPA (80%)) is 96.3%. In data set [7] (CO2), the “Average corrosion rate (RCE test)” value is 89 mils/y, the “Average corrosion rate (Weight Loss)” value is on record as 56 mils/y and the “Effciency at T = 15” value came out at 93%. Besides, in data set [7] (CO2, listed as octylphosphonic acid), the “Effciency at T = 15” value is recorded as more than 90%. Besides, in [3], the “Foam Volume after 10 minutes” value was 0 mL and the “Time to 1000 ml (secs)” value was “No foam”. Also, in data set [8], the solubility in methanol entry is reported as “fully soluble in methanol”.

For the molecule `CCCCCCCCP(=O)(O)O` [Octyl Phosphonic Acid (100%)—OPA, Octyl Phosphonic Acid], in data set [4], the “Brine (ml) @ T = 30 mins” value was 50 mL, the “Isopar M (ml) @ T = 30 mins” value stood at 50 mL, the “Pad (ml) @ T = 30 mins” value was determined as 0 mL and the “Emulsion Layer (%)” value stood at 0%.

For the molecule `CCCCCCCCP(=O)(O)O` [Octyl Phosphonic Acid], the “Surface tension at 30 second (mN/m)” value in data set [5] was 58.5* mN/m.

As for ethylhexyl acid phosphate, the corrosion inhibition properties result in data set [9] is “no corrosion inhibition properties”.
